According to patent US20210070748A1, “INHIBITORS OF BRUTONS TYROSINE KINASE” (Pharmacyclics LLC, priority 2015, published 2021):

Experiments:
Assay type in all cases: biochemical
[1] = molecular target: T1, JAK3 (Homo sapiens, UniProt P52333); assay: Inhibition of a panel of kinases, in vitro HotSpot kinase assay: JAK3; settings: D-compounds panel data; 1 μM ATP; read-out: IC50 JAK3
T1 sequence (P52333 1-1124): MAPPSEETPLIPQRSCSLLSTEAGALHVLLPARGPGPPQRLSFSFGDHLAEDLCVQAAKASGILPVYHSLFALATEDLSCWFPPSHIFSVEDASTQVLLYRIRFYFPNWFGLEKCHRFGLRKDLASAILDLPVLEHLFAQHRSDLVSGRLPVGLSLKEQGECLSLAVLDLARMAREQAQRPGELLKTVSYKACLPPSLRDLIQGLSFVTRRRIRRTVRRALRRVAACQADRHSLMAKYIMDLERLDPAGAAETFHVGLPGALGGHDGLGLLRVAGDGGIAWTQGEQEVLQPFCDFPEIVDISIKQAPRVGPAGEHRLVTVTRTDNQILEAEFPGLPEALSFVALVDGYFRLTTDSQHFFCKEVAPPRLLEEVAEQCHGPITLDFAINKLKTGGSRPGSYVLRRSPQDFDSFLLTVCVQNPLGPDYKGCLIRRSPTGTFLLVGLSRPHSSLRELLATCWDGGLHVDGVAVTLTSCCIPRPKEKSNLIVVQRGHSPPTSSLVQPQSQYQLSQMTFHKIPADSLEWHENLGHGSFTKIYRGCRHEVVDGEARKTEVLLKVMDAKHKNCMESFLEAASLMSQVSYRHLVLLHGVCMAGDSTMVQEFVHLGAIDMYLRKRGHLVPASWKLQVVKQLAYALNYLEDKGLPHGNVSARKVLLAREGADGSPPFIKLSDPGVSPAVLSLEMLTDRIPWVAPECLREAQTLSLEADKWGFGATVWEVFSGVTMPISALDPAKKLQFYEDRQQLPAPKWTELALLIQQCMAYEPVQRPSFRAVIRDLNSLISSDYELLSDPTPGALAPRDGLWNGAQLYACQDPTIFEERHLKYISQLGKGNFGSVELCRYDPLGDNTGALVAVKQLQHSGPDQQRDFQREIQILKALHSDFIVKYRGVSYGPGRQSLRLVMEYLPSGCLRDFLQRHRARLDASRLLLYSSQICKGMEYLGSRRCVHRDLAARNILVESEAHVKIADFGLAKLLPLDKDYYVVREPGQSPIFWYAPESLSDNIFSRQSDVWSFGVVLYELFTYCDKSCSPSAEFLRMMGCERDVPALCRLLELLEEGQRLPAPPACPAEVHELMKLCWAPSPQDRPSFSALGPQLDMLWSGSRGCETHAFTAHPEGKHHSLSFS

[2] = molecular target: LCK (Homo sapiens, UniProt P06239); assay: Inhibition of a panel of kinases, in vitro HotSpot kinase assay: LCK; settings: D-compounds panel data; 1 μM ATP; read-out: IC50 LCK
Sequence of LCK (P06239 whole entry): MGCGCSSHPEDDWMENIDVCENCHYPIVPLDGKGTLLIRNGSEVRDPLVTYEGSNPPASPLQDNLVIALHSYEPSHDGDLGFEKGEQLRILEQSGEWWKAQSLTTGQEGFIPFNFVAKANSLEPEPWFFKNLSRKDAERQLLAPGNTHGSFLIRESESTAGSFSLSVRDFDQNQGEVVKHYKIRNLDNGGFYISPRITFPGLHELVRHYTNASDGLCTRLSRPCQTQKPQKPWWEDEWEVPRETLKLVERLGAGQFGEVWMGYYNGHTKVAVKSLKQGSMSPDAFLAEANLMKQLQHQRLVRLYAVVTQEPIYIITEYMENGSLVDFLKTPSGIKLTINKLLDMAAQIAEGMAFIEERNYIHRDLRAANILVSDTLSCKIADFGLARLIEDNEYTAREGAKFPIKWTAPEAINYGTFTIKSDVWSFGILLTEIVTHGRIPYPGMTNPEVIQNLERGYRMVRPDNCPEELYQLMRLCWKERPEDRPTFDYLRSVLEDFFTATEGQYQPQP

[3] = molecular target: T2, TEC (Homo sapiens, UniProt P42680); assay: Inhibition of a panel of kinases, in vitro HotSpot kinase assay: TEC; settings: D-compounds panel data; 1 μM ATP
T2 sequence (P42680 1-631): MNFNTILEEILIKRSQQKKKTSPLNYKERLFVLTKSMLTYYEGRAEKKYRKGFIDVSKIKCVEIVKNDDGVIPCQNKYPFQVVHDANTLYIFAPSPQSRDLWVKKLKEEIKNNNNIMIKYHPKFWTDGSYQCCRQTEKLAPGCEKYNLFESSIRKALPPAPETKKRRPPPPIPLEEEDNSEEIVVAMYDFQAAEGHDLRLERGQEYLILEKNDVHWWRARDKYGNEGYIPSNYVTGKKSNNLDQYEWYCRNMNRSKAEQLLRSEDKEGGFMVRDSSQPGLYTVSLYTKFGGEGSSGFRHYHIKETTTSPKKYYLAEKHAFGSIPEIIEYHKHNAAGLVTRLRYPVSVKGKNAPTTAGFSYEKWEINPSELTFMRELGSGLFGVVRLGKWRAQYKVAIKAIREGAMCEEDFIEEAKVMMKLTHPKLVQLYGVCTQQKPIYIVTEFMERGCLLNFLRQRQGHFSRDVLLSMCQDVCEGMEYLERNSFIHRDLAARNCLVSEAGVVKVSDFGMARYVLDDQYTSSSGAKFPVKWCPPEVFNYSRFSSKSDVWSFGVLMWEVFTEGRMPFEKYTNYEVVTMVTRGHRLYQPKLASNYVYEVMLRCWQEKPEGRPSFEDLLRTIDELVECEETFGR
Protocol: (§1) The degree of inhibition of a panel of kinases is determined using the in vitro HotSpot kinase assay (purified enzymes, ^33P-ATP, an appropriate substrate and 1 μM ATP).

[4] = molecular target: EGFR (Homo sapiens, UniProt P00533); assay: Inhibition of a panel of kinases, in vitro HotSpot kinase assay: EGFR; settings: D-compounds panel data; 1 μM ATP
Sequence of EGFR (P00533 25-1210): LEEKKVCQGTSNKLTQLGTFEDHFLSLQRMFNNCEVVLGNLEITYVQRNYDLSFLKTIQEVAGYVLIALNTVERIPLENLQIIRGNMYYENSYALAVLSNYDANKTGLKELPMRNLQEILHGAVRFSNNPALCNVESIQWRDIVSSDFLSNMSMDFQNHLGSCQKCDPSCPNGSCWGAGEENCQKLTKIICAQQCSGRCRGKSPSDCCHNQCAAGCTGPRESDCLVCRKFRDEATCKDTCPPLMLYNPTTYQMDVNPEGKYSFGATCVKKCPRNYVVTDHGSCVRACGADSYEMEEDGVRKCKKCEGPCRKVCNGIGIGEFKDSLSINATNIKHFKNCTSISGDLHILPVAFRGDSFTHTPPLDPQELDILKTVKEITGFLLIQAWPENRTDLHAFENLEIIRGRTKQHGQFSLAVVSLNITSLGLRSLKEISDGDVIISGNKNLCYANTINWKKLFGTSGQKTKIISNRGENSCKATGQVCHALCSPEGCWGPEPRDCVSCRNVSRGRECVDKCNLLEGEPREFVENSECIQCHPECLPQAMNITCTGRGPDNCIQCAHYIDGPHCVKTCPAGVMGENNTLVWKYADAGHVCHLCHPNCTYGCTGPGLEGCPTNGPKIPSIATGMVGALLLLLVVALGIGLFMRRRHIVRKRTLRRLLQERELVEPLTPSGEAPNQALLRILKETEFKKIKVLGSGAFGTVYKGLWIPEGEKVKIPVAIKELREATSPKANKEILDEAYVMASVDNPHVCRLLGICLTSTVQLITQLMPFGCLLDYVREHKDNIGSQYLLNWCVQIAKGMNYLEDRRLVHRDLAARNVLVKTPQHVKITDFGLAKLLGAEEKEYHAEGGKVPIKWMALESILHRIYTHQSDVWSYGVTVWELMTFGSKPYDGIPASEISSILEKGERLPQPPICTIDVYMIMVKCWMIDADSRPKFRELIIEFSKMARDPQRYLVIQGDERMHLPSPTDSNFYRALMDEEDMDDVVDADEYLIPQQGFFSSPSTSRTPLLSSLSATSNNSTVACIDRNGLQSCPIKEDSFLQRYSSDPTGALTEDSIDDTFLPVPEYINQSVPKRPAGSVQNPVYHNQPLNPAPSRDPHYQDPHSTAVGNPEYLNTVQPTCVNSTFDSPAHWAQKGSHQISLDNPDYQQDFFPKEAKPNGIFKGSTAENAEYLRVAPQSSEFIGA
Protocol: as §1

[5] = molecular target: SRC (Homo sapiens, UniProt P12931); assay: Inhibition of a panel of kinases, in vitro HotSpot kinase assay: SRC; settings: D-compounds panel data; 1 μM ATP
Sequence of SRC (P12931 whole entry): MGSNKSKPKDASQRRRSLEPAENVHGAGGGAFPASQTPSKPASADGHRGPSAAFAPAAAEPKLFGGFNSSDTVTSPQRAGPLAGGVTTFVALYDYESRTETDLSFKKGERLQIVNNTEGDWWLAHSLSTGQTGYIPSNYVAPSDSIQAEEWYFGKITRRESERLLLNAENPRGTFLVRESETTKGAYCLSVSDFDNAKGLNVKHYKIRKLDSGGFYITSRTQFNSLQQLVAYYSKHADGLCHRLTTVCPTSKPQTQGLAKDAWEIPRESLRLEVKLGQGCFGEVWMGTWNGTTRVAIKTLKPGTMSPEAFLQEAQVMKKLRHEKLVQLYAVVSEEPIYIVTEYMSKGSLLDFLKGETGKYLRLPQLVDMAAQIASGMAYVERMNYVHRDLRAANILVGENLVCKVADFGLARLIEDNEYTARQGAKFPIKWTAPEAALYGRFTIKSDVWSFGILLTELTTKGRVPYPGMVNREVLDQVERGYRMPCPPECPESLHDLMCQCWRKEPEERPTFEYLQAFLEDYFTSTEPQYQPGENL
Protocol: as §1

[6] = molecular target: T3, ITK (Homo sapiens, UniProt Q08881); assay: Inhibition of a panel of kinases, in vitro HotSpot kinase assay: ITK; settings: D-compounds panel data; 1 μM ATP
T3 sequence (Q08881 1-620): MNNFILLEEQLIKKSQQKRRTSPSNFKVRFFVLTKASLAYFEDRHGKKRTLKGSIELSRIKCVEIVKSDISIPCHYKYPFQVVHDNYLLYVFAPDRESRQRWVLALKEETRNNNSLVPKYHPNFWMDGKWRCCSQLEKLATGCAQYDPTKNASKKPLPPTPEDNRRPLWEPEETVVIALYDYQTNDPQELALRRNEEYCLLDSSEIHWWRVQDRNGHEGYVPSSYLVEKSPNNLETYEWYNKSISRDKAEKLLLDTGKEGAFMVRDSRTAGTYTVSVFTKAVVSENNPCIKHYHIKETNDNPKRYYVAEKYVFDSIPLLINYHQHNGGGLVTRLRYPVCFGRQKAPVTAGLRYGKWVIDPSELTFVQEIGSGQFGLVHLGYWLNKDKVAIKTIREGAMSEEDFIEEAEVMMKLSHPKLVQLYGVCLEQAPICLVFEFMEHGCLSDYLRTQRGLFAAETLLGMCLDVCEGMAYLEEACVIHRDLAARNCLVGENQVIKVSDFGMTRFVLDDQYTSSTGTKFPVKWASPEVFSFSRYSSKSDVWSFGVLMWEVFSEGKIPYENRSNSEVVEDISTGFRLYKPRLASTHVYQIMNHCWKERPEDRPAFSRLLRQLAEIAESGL
Protocol: as §1

| SMILES | IC50 [1] | IC50 [2] | IC50 [3] | IC50 [4] | IC50 [5] | IC50 [6] |
| --- | --- | --- | --- | --- | --- | --- |
| Cn1cc(Nc2nc(N3CCC(F)(F)[C@H](NC(=O)c4ccc(C5CC5)cc4)C3)cnc2C(N)=O)cn1 [Example D-192, 5-[(3R)-3-(4-cyclopropylbenzamido)-4,4-difluoropiperidin-1-yl]-3-[(1-methyl-1H-pyrazol-4-yl)amino]pyrazine-2-carboxamide] | 1000 to 10000 nM | > 10000 nM | 1000 to 10000 nM | > 10000 nM | 1000 to 10000 nM | 1000 to 10000 nM |
| Cn1cc(Nc2nc(N3CCC(F)(F)[C@@H](NC(=O)c4ccc(C5CC5)cc4)C3)cnc2C(N)=O)cn1 [Example D-193, 5-[(3S)-3-(4-cyclopropylbenzamido)-4,4-difluoropiperidin-1-yl]-3-[(1-methylpyrazol-4-yl)amino]pyrazine-2-carboxamide] | 1000 to 10000 nM | > 10000 nM | 100 to 1000 nM | > 10000 nM | 1000 to 10000 nM | > 10000 nM |
| C[C@@H]1[C@H](NC(=O)c2ccc(C(C)(C)O)cc2)CCCN1c1cnc(C(N)=O)c(Nc2cnn(C)c2)n1 [Example D-194, 5-[(2R,3R)-3-[4-(2-hydroxypropan-2-yl)benzamido]-2-methylpiperidin-1-yl]-3-[(1-methyl-1H-pyrazol-4-yl)amino]pyrazine-2-carboxamide] | 1000 to 10000 nM | 100 to 1000 nM | ≤ 10 nM | 1000 to 10000 nM | 100 to 1000 nM | 100 to 1000 nM |
| Cn1cc(Nc2nc(N3CCC[C@@H](NC(=O)c4ccc(C5CC5)cc4)C3)nnc2C(N)=O)cn1 [Example D-195, 3-[(3R)-3-(4-cyclopropylbenzamido)piperidin-1-yl]-5-[(1-methyl-1H-pyrazol-4-yl)amino]-1,2,4-triazine-6-carboxamide] | 1000 to 10000 nM | 100 to 1000 nM | 10 to 100 nM | > 10000 nM | 100 to 1000 nM | 100 to 1000 nM |
| C[C@@H]1[C@H](NC(=O)c2ccc(N(C)C)cc2)CCCN1c1cnc(C(N)=O)c(Nc2ccc(N3CCN(C)CC3)cc2)n1 [Example D-196, 5-[(2R,3R)-3-[4-(dimethylamino)benzamido]-2-methylpiperidin-1-yl]-3-{[4-(4-methylpiperazin-1-yl)phenyl]amino}pyrazine-2-carboxamide] | 100 to 1000 nM | 10 to 100 nM | 10 to 100 nM | 100 to 1000 nM | 10 to 100 nM | 10 to 100 nM |
| CC(C)c1ccc(C(=O)N[C@@H]2CCCN(c3cnc(C(N)=O)c(Nc4cnn(C)c4)n3)[C@@H]2C)cc1 [Example D-197, 3-[(1-methyl-1H-pyrazol-4-yl)amino]-5-[(2R,3R)-2-methyl-3-[4-(propan-2-yl)benzamido]piperidin-1-yl]pyrazine-2-carboxamide] | 1000 to 10000 nM | 100 to 1000 nM | 10 to 100 nM | 1000 to 10000 nM | 100 to 1000 nM | 100 to 1000 nM |
| C[C@@H]1[C@H](NC(=O)c2ncc(C3CC3)cn2)CCCN1c1cnc(C(N)=O)c(Nc2cnn(C)c2)n1 [Example D-198, 5-[(2R,3R)-3-(5-cyclopropylpyrimidine-2-amido)-2-methylpiperidin-1-yl]-3-[(1-methyl-1H-pyrazol-4-yl)amino]pyrazine-2-carboxamide] | 100 to 1000 nM | 10 to 100 nM | 10 to 100 nM | 1000 to 10000 nM | 10 to 100 nM | 100 to 1000 nM |
| C[C@@H]1[C@H](NC(=O)c2ccc(C3CC3)nc2)CCCN1c1cnc(C(N)=O)c(Nc2ccc(N3CCN(C)CC3)cc2)n1 [Example D-203, 5-[(2R,3R)-3-(6-cyclopropylpyridine-3-amido)-2-methylpiperidin-1-yl]-3-{[4-(4-methylpiperazin-1-yl)phenyl]amino}pyrazine-2-carboxamide] | 1000 to 10000 nM | 10 to 100 nM | ≤ 10 nM | 100 to 1000 nM | 10 to 100 nM | 10 to 100 nM |
| C[C@@H]1[C@H](NC(=O)c2cnc(C3CC3)cn2)CCCN1c1cnc(C(N)=O)c(Nc2cnn(C)c2)n1 [Example D-205, 5-[(2R,3R)-3-(5-cyclopropylpyrazine-2-amido)-2-methylpiperidin-1-yl]-3-[(1-methyl-1H-pyrazol-4-yl)amino]pyrazine-2-carboxamide] | 1000 to 10000 nM | 10 to 100 nM | ≤ 10 nM | 100 to 1000 nM | 10 to 100 nM | 100 to 1000 nM |
| Cn1cc(Nc2nc(N3CCC[C@@H](n4ccc5cc(C6CC6)ccc5c4=O)C3)nnc2C(N)=O)cn1 [Example D-206, 3-[(3R)-3-(6-cyclopropyl-1-oxo-1,2-dihydroisoquinolin-2-yl)piperidin-1-yl]-5-[(1-methyl-1H-pyrazol-4-yl)amino]-1,2,4-triazine-6-carboxamide] | 1000 to 10000 nM | 10 to 100 nM | ≤ 10 nM | 1000 to 10000 nM | 10 to 100 nM | 100 to 1000 nM |
| C[C@@H]1[C@H](NC(=O)c2ccc(C3CC3)cc2)CCCN1c1cnc(C(N)=O)c(Nc2cnn(C)c2)c1 [Example D-207, 5-[(2R,3R)-3-(4-cyclopropylbenzamido)-2-methylpiperidin-1-yl]-3-[(1-methyl-1H-pyrazol-4-yl)amino]pyridine-2-carboxamide] | 100 to 1000 nM | 100 to 1000 nM | 100 to 1000 nM | > 10000 nM | 100 to 1000 nM | 1000 to 10000 nM |
| C[C@@H]1[C@H](NC(=O)c2ccc(C(C)(C)C)cn2)CCCN1c1cnc(C(N)=O)c(Nc2cnn(C)c2)n1 [Example D-208, 5-[(2R,3R)-3-(5-tert-butylpyridine-2-amido)-2-methylpiperidin-1-yl]-3-[(1-methyl-1H-pyrazol-4-yl)amino]pyrazine-2-carboxamide] | 1000 to 10000 nM | 100 to 1000 nM | 10 to 100 nM | 1000 to 10000 nM | 10 to 100 nM | 100 to 1000 nM |
